From US4725578A, “Compounds having therapeutic effect and the preparation thereof” (Tobishi Pharmaceutical Co., Ltd., priority 1986, dated 1988)

Test system: P-388 cells
Experiment: Antineoplastic action against implanted P-388 cells (ip-ip), survival T/C
Assay type: in vivo, CDFl mice
Settings: for T/C % (Treatment/Control %): Table 6, P388, intraperitoneal
Method: To the peritoneal cavity of each group of mice consisting of six CDFl mice per group, 10^6 /0.1 ml of P-388 cells or 10^5 /0.1 ml of L-1210 cells were implanted. […]
In the Table, the symbol T/C % means Treatment/Control %, that is the increase in life when the control is 100. […] This method is used in the screening of U.S. National Cancer Institute.
In Table 7, the symbol "i.P.-i.P." means that the tumor cells are implanted intraperitoneally and the compounds being tested are also administered intraperitoneally. The symbol "TR" is the therapeutic ratio obtained by dividing the dose which provides a maximum T/C value, by the dose which provides a minimum T/C value.

Row | Structure (SMILES) | T/C % (Treatment/Control %) (dose 0.05 mg/kg) [%] | T/C % (Treatment/Control %) (dose 0.5 mg/kg) [%] | T/C % (Treatment/Control %) (dose 2 mg/kg) [%] | T/C % (Treatment/Control %) (dose 10 mg/kg) [%] | T/C (additional tests, P 388 (ip-ip), 0.5 mg/kg × 5, single agent) [%]
1 | CCCC(=O)Oc1ccc2cc1Oc1ccc(cc1)CC1C(=O)N(C)C(C2)C(=O)NC(C)C(=O)NC(C)C(=O)N(C)C(Cc2ccc(OC)cc2)C(=O)NC(C)C(=O)N1C (centres unmarked) [Ex. 24] | 125.1 | 144.2 | 155.9 | 170.0 | 
2 | COc1ccc(CC2C(=O)NC(C)C(=O)N(C)C3Cc4ccc(cc4)Oc4cc(ccc4OC(=O)C(C)C)CC(C(=O)NC(C)C(=O)NC(C)C(=O)N2C)N(C)C3=O)cc1 (centres unmarked) [Ex. 25] | 124.1 | 150.7 | 155.9 | 183.5 | 
3 | CC=CC(=O)Oc1ccc2cc1Oc1ccc(cc1)CC1C(=O)N(C)C(C2)C(=O)NC(C)C(=O)NC(C)C(=O)N(C)C(Cc2ccc(OC)cc2)C(=O)NC(C)C(=O)N1C (centres unmarked) [Ex. 26] | 124.1 | 148.5 | 162.3 | 186.6 | 
4 | CCCCC(=O)Oc1ccc2cc1Oc1ccc(cc1)CC1C(=O)N(C)C(C2)C(=O)NC(C)C(=O)NC(C)C(=O)N(C)C(Cc2ccc(OC)cc2)C(=O)NC(C)C(=O)N1C (centres unmarked) [Ex. 27] | 117.9 | 149.5 | 157.9 | 171.6 | 
5 | COc1ccc(CC2C(=O)NC(C)C(=O)N(C)C3Cc4ccc(cc4)Oc4cc(ccc4OC(=O)CCC(C)C)CC(C(=O)NC(C)C(=O)NC(C)C(=O)N2C)N(C)C3=O)cc1 (centres unmarked) [Ex. 40, 4-methyl valerate] | 111.6 | 133.9 | 152.1 |  | 
6 | CCC(C)CC(=O)Oc1ccc2cc1Oc1ccc(cc1)CC1C(=O)N(C)C(C2)C(=O)NC(C)C(=O)NC(C)C(=O)N(C)C(Cc2ccc(OC)cc2)C(=O)NC(C)C(=O)N1C (centres unmarked) [Ex. 42] | 114.6 | 140.0 | 159.2 |  | 
7 | CCCC(C)C(=O)Oc1ccc2cc1Oc1ccc(cc1)CC1C(=O)N(C)C(C2)C(=O)NC(C)C(=O)NC(C)C(=O)N(C)C(Cc2ccc(OC)cc2)C(=O)NC(C)C(=O)N1C (centres unmarked) [Ex. 43] | 116.6 | 142.0 | 154.2 |  | 
8 | CCCC=CC(=O)Oc1ccc2cc1Oc1ccc(cc1)CC1C(=O)N(C)C(C2)C(=O)NC(C)C(=O)NC(C)C(=O)N(C)C(Cc2ccc(OC)cc2)C(=O)NC(C)C(=O)N1C (centres unmarked) [Ex. 44] | 116.6 | 150.1 | 165.3 |  | 
9 | CCC=CCC(=O)Oc1ccc2cc1Oc1ccc(cc1)CC1C(=O)N(C)C(C2)C(=O)NC(C)C(=O)NC(C)C(=O)N(C)C(Cc2ccc(OC)cc2)C(=O)NC(C)C(=O)N1C (centres unmarked) [Ex. 45] | 121.7 | 145.0 | 162.3 |  | 
10 | CO[C@@]12[C@H](COC(N)=O)C3=C(C(=O)C(C)=C(N)C3=O)N1C[C@@H]1N[C@@H]12 [Mitomycin, reference compound] |  |  |  |  | 198.2
